Key:
human LDL = assay: Lipid peroxide-suppressing action: CuSO4-induced LDL oxidation, TBARS assay (Example 1); format: biochemical; conditions: for Amount of TBARS: 0.2 mg/mL LDL + 5 μM CuSO4, 37° C., 3 hours, mean, n=2
Protocol: As an action of capturing free group (free radical-scavenging action), the effect of N-β-alanyl-5-S-glutathionyl-3,4-dihydroxyphenylalanine (5-S-GAD) on LDL oxidation was examined. As controls, dopamine and Carnosine (under trade name; N-acetylcarnosine as the ingredient name) used as eye drops for cataract were used. LDL was prepared by a fractionation and centrifugation method. A fraction at a specific gravity of 1.019 to 1.063 g/mL in serum was defined as human LDL. 5 μM CuSO4, 5-S-GAD (3 to 100 μM) and N-acetyl-carnosine (100 μM to 10 mM) or L-carnosine (10 μM to 10 mM) were added to 0.2 mg/mL LDL, for incubation at 37° C. for 3 hours. After termination of the incubation, TBARS (a substance reactive with thiobarbituric acid) was assayed. Although the TBA reaction is a non-specific reaction, the reaction is used for a method of assaying various lipid peroxide products including malone dialdehyde. An experiment of peroxidation with copper sulfate was done twice (N=2). An aqueous solution containing 3.75 mg/mL thiobarbituric acid (TBA), 150 mg/mL trichloroacetic acid (TCA) and 0.25 N hydrochloric acid (HCl) was prepared as the TBA reagent, while tetramethoxypropane was used to prepare standard solutions (2, 5, 10, 20, 40 μM). 100 μL each of an LDL sample or a standard solution was added together with 200 μL of the TBA reagent into an Eppendorf tube (1.5 mL), which was then sealed with a cap for thorough mixing. After heating at 95° C. for 15 minutes, the resulting mixture was cooled in water and centrifuged at 3000 rpm for 5 minutes. The supernatant was assayed of the absorbance (535 nm). Based on the absorbance of the standard solutions, a standard curve was prepared. Based on the standard curve, the amount of TBARS in the LDL sample was calculated (in nmol/mg LDL protein) (mean, n=2, see Table 1 and FIG. 1).

[1] = test system: chicken egg chorioallantois; assay: Vascularization-suppressing action, chicken egg chorioallantois (Example 10); format: in vivo; conditions: 10 μL in 1% methylcellulose inside ring, 37° C., 48 hours; FIG. 10
Protocol: A ring of a 3-mm diameter was placed on a chicken egg chorioallantois on day 5 after oviposition. 10 μL of the test substance diluted with 1% methylcellulose was added inside the ring. After incubation at 37° C. for 48 hours, fat emulsion was injected into the chorioallantois. A part from which the ring was displaced was photographed. Using an image analysis software (Kurabo Industries, Ltd.), the vascular area was measured.

[2] = DPPH-scavenging activity versus N-acetyl-L-carnosine (Example 6); format: biochemical; conditions: 60 μM DPPH, 5 minutes; FIG. 6
Protocol: 5-S-GAD or N-acetyl-L-carnosine was added to an ethanol solution of 60 μM DPPH for reaction at ambient temperature for 5 minutes. Subsequently, the concentration of the DPPH radical was measured via the absorbance at 517 nm. The DPPH radical concentration in a reaction solution to which distilled water instead of the test substance solution was added, was used as a control. In the same manner as in Example 2, the scavenging ratio (%) of the DPPH radical was calculated and defined as the radical-scavenging activity (see FIG. 6).

[3] = Superoxide anion-scavenging activity, xanthine/xanthine oxidase, lucigenin chemiluminescence (Example 3); format: biochemical; conditions: for Radical-scavenging ratio (%) (superoxide anion-scavenging activity): chemiluminescence AUC over 10 minutes, control = 100, mean, n=2
Protocol: In a 50 mM carbonate buffer (pH 10) containing 200 μM lucigenin, 100 μM xanthine and 1 mU/mL xanthine oxidase reacted together. The chemiluminescence level depending on the generated superoxide anion (O^2−) was assayed with BIOLUMAT (under trade name) (Model type LB 9505, manufactured by EG&G BERTHORD Company) for 10 minutes. The area under the curve indicating the total chemiluminescence over the 10 minutes was calculated. Defining the area under the curve for a group (control) added with PBS(−) instead of the test substance solution at the same amount as that of the solution as 100, the effect of N-β-alanyl-5-S-glutathionyl-3,4-dihydroxyphenylalanine (5-S-GAD) (Table 4) or Carnosine (under trade name) (Table 5) on the increase of chemiluminescence was examined. The suppressive activity thereof was defined as superoxide anion-scavenging activity (%) (mean, n=2; see Table 4, Table 5 and FIG. 3).

[4] = DPPH-scavenging action (Example 2); format: biochemical; conditions: for Radical-scavenging ratio (%): DPPH, ambient temperature, 5 minutes, mean, n=2
Protocol: DPPH (1,1-diphenyl-2-picrylhydrazyl) is one of nitrogen radicals and is a very stable radical, which is commercially available as a black-purple crystal (Wako Pure Chemical, Co., Ltd., etc.). N-β-Alanyl-5-S-glutathionyl-3,4-dihydroxyphenylalanine (5-S-GAD) (see Table 2) or Carnosine (under trade name) (see Table 3) was added to an ethanol solution of […] DPPH radical, for reaction at ambient temperature for 5 minutes (see the following reaction scheme). Instead of the test reagent, distilled water was added to the ethanol solution, which was used as a background. The DPPH absorbance at 517 nm was assayed, to calculate the scavenging ratio (%) of the DPPH radical according to the following equation. The scavenging ratio was defined as radical scavenger activity (mean, n=2; see Table 2, Table 3 and FIG. 2).
Radical-scavenging ratio (%)=[assay value of background (mean)−assay value of solution at each concentration]/background assay value (mean)]×100

[5] = Superoxide anion-scavenging activity, chemiluminescence, versus N-acetyl-L-carnosine (Example 7); format: biochemical; conditions: lucigenin chemiluminescence; FIG. 7
Protocol: In a 50 mM carbonate buffer (pH 10) containing 200 μM lucigenin, 100 μM xanthine and 1 mU/mL xanthine oxidase reacted together. The chemiluminescence level depending on the generated superoxide anion (O^2−) was assayed for 10 minutes. The area under the curve indicating the total chemiluminescence over the 10 minutes was calculated. A group to which PBS(−) instead of the test substance solution was added at the same amount as that of the solution, was defined as a control. In the same manner as in Example 3, the effect of 5-S-GAD or N-acetyl-L-carnosine added on the increase of chemiluminescence was examined. The suppressive activity thereof was defined as superoxide anion-scavenging activity (%) (see FIG. 7).

## NCCC(=O)N[C@@H](Cc1cc(O)c(O)c(SC[C@H](NC(=O)CC[C@H](N)C(=O)O)C(=O)NCC(=O)O)c1)C(=O)O [5-S-GAD, N-β-alanyl-5-S-glutathionyl-3,4-dihydroxyphenylalanine]
Human LDL; 10 μM added
  Amount of TBARS: 85.683 nmol/mg LDL protein
Human LDL; 30 μM added
  Amount of TBARS: 4.290 nmol/mg LDL protein
Human LDL; 100 μM added
  Amount of TBARS: 2.649 nmol/mg LDL protein
Human LDL; LDL oxidation, TBARS
  anti-oxidation action, level relative to Carnosine (under trade name): 10 fold
  anti-oxidation action, level relative to dopamine: the same level as that of dopamine
[1]
  suppression of vascularization (vascular area): suppressed vascularization significantly
[2]
  DPPH radical-scavenging action compared with N-acetyl-L-carnosine (in words): excellent DPPH radical-scavenging action compared with N-acetyl-L-carnosine
[3]; 0.1 μM added
  Radical-scavenging ratio (%) (superoxide anion-scavenging activity): −0.75%
[3]; 1 μM added
  Radical-scavenging ratio (%) (superoxide anion-scavenging activity): 26.03%
[3]; 10 μM added
  Radical-scavenging ratio (%) (superoxide anion-scavenging activity): 78.28%
[3]; 100 μM added
  Radical-scavenging ratio (%) (superoxide anion-scavenging activity): 91.19%
[3]; summary of Table 4, Table 5 and FIG. 3
  action for scavenging the superoxide anion (O^2−) (in words): strong actions for scavenging the superoxide anion (O^2−)
[4]; 1 μM added
  Radical-scavenging ratio (%): 3.918%
[4]; 3 μM added
  Radical-scavenging ratio (%): 13.891%
[4]; 10 μM added
  Radical-scavenging ratio (%): 73.762%
[4]; 30 μM added
  Radical-scavenging ratio (%): 93.487%
[4]; summary of Table 2, Table 3 and FIG. 2
  action for scavenging the DPPH radical (in words): strong actions for scavenging the DPPH radical
[5]
  superoxide anion (O^2−)-scavenging action compared with N-acetyl-L-carnosine (in words): excellent superoxide anion (O^2−)-scavenging action compared with N-acetyl-L-carnosine

— patent publication US8304452B2, “Radical scavenger and active oxygen eliminating agent” (InBiotex Inc., priority 2005, dated 2012)
